For 23 compounds, IC50 results are on record in US20230065740A1, “CYCLIN-DEPENDENT KINASE INHIBITORS” (SPV THERAPEUTICS INC., priority 2018, published 2023).

Assay [1] concerns the target T1, CDK6-CYCLIND3 (Homo sapiens, UniProt Q00534).
T1 construct: purchased Carna
Kind of assay: Microfluidic LabChip kinase inhibition assay, CDK6-CyclinD3. Format: biochemical. Conditions: 300 μM ATP.

Assay [2] has as its target CDK4-CYCLIND1 (Homo sapiens, UniProt P11802). Kind of assay: Microfluidic LabChip kinase inhibition assay, CDK4-CyclinD1. Conditions: 200 μM ATP.
The mark [3] stands for this setting: Table 2, 2 nM enzyme, read-out: CDK6 IC50.
[4] abbreviates: CDK4 IC50 (μM), Table 2, 1 nM enzyme.
[5] abbreviates: Table 3a, read-out: CDK6 CyclinD3 IC50.
[6] abbreviates: Table 3b, read-out: CDK6 CyclinD3 IC50.
[7] abbreviates: CDK4 CyclinD1 IC50 (μM), Table 3a, second value in parentheses on the next line.
[8] abbreviates: CDK4 CyclinD1 IC50 (μM), Table 3b, second value in parentheses on the next line.

Several values for one entry are separate records, joined by “and”; a condition that tells them apart may be missing. Equal values may be shown once. Read-outs that look alike come from different tables or passages of the source.

CDK4-CYCLIND1, sequence (P11802 whole entry): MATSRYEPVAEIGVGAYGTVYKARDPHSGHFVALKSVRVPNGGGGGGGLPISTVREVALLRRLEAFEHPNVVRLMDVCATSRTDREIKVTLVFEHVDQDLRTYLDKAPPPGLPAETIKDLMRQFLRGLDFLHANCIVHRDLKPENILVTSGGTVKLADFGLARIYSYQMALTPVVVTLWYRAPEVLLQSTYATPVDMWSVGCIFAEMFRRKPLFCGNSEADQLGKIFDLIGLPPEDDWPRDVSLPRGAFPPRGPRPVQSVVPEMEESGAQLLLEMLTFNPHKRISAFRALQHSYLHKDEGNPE
CDK4-CYCLIND1, sequence (P24385 whole entry partner): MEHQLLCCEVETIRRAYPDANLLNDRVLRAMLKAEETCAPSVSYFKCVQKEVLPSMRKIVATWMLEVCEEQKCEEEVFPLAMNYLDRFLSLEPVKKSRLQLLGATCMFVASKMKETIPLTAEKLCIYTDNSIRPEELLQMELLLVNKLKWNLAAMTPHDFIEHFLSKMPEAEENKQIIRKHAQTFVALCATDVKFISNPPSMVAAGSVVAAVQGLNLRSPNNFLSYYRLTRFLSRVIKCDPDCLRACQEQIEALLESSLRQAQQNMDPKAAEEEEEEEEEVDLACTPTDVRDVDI
T1 sequence (Q00534 whole entry): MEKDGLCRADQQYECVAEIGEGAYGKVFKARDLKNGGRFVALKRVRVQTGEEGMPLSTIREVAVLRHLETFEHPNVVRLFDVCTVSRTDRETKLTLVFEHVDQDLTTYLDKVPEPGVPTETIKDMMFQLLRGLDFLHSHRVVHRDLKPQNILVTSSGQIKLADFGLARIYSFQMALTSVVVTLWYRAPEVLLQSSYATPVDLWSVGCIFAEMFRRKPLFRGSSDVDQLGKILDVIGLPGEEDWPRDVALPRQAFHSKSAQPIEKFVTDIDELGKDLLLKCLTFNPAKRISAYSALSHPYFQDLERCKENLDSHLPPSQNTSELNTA
T1 sequence (P30281 whole entry partner): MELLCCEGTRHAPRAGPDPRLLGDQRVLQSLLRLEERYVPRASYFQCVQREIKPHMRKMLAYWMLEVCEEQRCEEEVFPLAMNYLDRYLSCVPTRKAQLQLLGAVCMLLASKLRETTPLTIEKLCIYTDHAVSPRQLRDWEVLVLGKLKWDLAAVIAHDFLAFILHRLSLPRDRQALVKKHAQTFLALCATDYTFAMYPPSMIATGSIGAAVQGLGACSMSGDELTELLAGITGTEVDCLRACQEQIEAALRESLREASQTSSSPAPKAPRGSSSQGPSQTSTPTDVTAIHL

By IC50 is commonly meant the midpoint of a concentration-inhibition curve. Take `O=C1CC2(Cc3cnc(Nc4ccc(N5CCOCC5)c(F)c4)nc3N2C2CCCC2)C(=O)N1` (stereo not drawn) [Compound C86, 7′-cyclopentyl-2′-((3-fluoro-4-morpholinophenyl)amino)-5′,7′-dihydrospiro[pyrrolidine-3,6′-pyrrolo[2,3-d]pyrimidine]-2,5-dione]: the figures for the IC50 in assay [1] (setting [3]) and in assay [2] (setting [4]) were 461 nM and 0.101 µM, respectively.

In the case of `CN1CCN(c2ccc(Nc3ncc4c(n3)N(C3CCCC3)C3(CC(=O)NC3=O)C4)c(F)c2)CC1` (stereo not drawn) [Compound C87, 7′-cyclopentyl-2′-((2-fluoro-4-(4-methylpiperazin-1-yl)phenyl)amino)-5′,7′-dihydrospiro[pyrrolidine-3,6′-pyrrolo[2,3-d]pyrimidine]-2,5-dione], the figures for the IC50 in assay [1] (setting [3]) and in assay [2] (setting [4]) were 78100 nM and 14.9 µM, respectively.

In the case of `CN(C)CCOc1ccc(Nc2ncc3c(n2)N(C2CCCC2)C2(CC(=O)NC2=O)C3)cn1` (stereo not drawn) [Compound C88, 7′-cyclopentyl-2′-((6-(2-(dimethylamino)ethoxy)pyridin-3-yl)amino)-5′,7′-dihydrospiro[pyrrolidine-3,6′-pyrrolo[2,3-d]pyrimidine]-2,5-dione], the IC50 is 359 nM in assay [1] (setting [3]) and 0.097 µM in assay [2] (setting [4]).

As to `CN(C)CCOc1ccc(Nc2ncc3c(n2)N(C2CCCC2)C2(CC(=O)NC2=O)C3)cc1` (stereo not drawn) [Compound C89, 7′-cyclopentyl-2′-((4-(2-(dimethylamino)ethoxy)phenyl)amino)-5′,7′-dihydrospiro[pyrrolidine-3,6′-pyrrolo[2,3-d]pyrimidine]-2,5-dione], the values for the half-maximal inhibitory concentration (IC50) in assay [1] (setting [3]) and in assay [2] (setting [4]) were 562 nM and 0.143 µM, respectively.

For `O=C1CC2(Cc3cnc(Nc4ccc(OCCN5CCCC5)nc4)nc3N2C2CCCC2)C(=O)N1` (stereo not drawn) [Compound C90, 7′-cyclopentyl-2′-((6-(2-(pyrrolidin-1-yl)ethoxy)pyridin-3-yl)amino)-5′,7′-dihydrospiro[pyrrolidine-3,6′-pyrrolo[2,3-d]pyrimidine]-2,5-dione], the figures for the half-maximal inhibitory concentration (IC50) in assay [1] (setting [3]) and in assay [2] (setting [4]) were 255 nM and 0.072 µM, respectively.

Regarding `O=C1CC2(Cc3cnc(Nc4ccc(OCCN5CCCC5)c(F)c4)nc3N2C2CCCC2)C(=O)N1` (stereo not drawn) [Compound C91, 7′-cyclopentyl-2′-((3-fluoro-4-(2-(pyrrolidin-1-yl)ethoxy)phenyl)amino)-5′,7′-dihydrospiro[pyrrolidine-3,6′-pyrrolo[2,3-d]pyrimidine]-2,5-dione], the IC50 in assay [1] (setting [3]) came out at 239 nM; in assay [2] (setting [4]), 0.0554 µM.

As to `CN(C)CCOc1ccc(Nc2ncc3c(n2)N(C2CCCC2)C2(CC(=O)NC2=O)C3)nc1` (stereo not drawn) [Compound C92, 7′-cyclopentyl-2′-((5-(2-(dimethylamino)ethoxy)pyridin-2-yl)amino)-5′,7′-dihydrospiro[pyrrolidine-3,6′-pyrrolo[2,3-d]pyrimidine]-2,5-dione], the 50% inhibitory concentration (IC50) turned out to be 95.5 nM in assay [1] (setting [3]) and 0.0831 µM in assay [2] (setting [4]).

Consider `O=C1CC2(Cc3cnc(Nc4ccc(C5=CCNCC5)cn4)nc3N2C2CCCC2)C(=O)N1` (stereo not drawn) [Compound C93, 7′-cyclopentyl-2′-((1′,2′,3′,6′-tetrahydro-[3,4′-bipyridin]-6-yl)amino)-5′,7′-dihydrospiro[pyrrolidine-3,6′-pyrrolo[2,3-d]pyrimidine]-2,5-dione], for which the IC50 was found to be 31800 nM in assay [1] (setting [3]) and 6.84 µM in assay [2] (setting [4]).

For the compound `CC(C)N1CC=C(c2ccc(Nc3ncc4c(n3)N(C3CCCC3)C3(CC(=O)NC3=O)C4)nc2)CC1` (stereo not drawn) [Compound C94, 7′-cyclopentyl-2′-((1′-isopropyl-1′,2′,3′,6′-tetrahydro-[3,4′-bipyridin]-6-yl)amino)-5′,7′-dihydrospiro[pyrrolidine-3,6′-pyrrolo[2,3-d]pyrimidine]-2,5-dione], the 50% inhibitory concentration (IC50) was 45.6 nM in assay [1] (setting [3]) and 0.0462 µM in assay [2] (setting [4]).

Regarding `O=C1NCCC12Cc1cnc(Nc3ccc(N4CCC(N5CCOCC5)CC4)cc3)nc1N2C1CCCC1` (stereo not drawn) [Compound C95, 7′-cyclopentyl-2′-((4-(4-morpholinopiperidin-1-yl)phenyl)amino)-5′,7′-dihydrospiro[pyrrolidine-3,6′-pyrrolo[2,3-d]pyrimidin]-2-one], the IC50 in assay [1] (setting [3]) is 993 nM; in assay [2] (setting [4]) it was 0.273 µM.

With `O=C1NCCC12Cc1cnc(Nc3ccc(N4CCC(N5CCOCC5)CC4)nc3)nc1N2C1CCCC1` (stereo not drawn) [Compound C96, 7′-cyclopentyl-2′-((6-(4-morpholinopiperidin-1-yl)pyridin-3-yl)amino)-5′,7′-dihydrospiro[pyrrolidine-3,6′-pyrrolo[2,3-d]pyrimidin]-2-one], the values for the IC50 in assay [1] (setting [3]) and in assay [2] (setting [4]) were 488 nM and 0.142 µM, respectively.

Consider `O=C1NCCC12Cc1cnc(Nc3ccc(N4CCC(N5CCOCC5)CC4)c(F)c3)nc1N2C1CCCC1` (stereo not drawn) [Compound C97, 7′-cyclopentyl-2′-((3-fluoro-4-(4-morpholinopiperidin-1-yl)phenyl)amino)-5′,7′-dihydrospiro[pyrrolidine-3,6′-pyrrolo[2,3-d]pyrimidin]-2-one], for which the half-maximal inhibitory concentration (IC50) in assay [1] (setting [3]) was found to be 287 nM; in assay [2] (setting [4]), 0.0747 µM.

Regarding `CN1CCN(c2ccc(Nc3ncc4c(n3)N(C3CCCC3)C(=O)C43CCNC3=O)nc2)CC1` (stereo not drawn) [Compound C100, 7′-cyclopentyl-2′-((5-(4-methylpiperazin-1-yl)pyridin-2-yl)amino)spiro[pyrrolidine-3,5′-pyrrolo[2,3-d]pyrimidine]-2,6′(7′H)-dione], the IC50 came out at 33400 nM in assay [1] (setting [3]) and 13.7 µM in assay [2] (setting [4]).

In the case of `CN1CCN(c2ccc(Nc3ncc4c(n3)N(C3CCCC3)C(=O)C43CCNC3=O)cc2)CC1` (stereo not drawn) [Compound C101, 7′-cyclopentyl-2′-((4-(4-methylpiperazin-1-yl)phenyl)amino)spiro[pyrrolidine-3,5′-pyrrolo[2,3-d]pyrimidine]-2,6′(7′H)-dione], the values for the half-maximal inhibitory concentration (IC50) in assay [1] (setting [3]) and in assay [2] (setting [4]) were 43400 nM and 21 µM, respectively.

In the case of `O=C1NCCC12C(=O)N(C1CCCC1)c1nc(Nc3ccc(N4CCNCC4)c(F)c3)ncc12` (stereo not drawn) [Compound C102, 7′-cyclopentyl-2′-((3-fluoro-4-(piperazin-1-yl)phenyl)amino)spiro[pyrrolidine-3,5′-pyrrolo[2,3-d]pyrimidine]-2,6′(7′H)-dione], the concentration for half-maximal inhibition (IC50) in assay [1] (setting [3]) was 25500 nM; in assay [2] (setting [4]), 21.8 µM.

On to `CN1CCN(c2ccc(Nc3ncc4c(n3)N(C3CCCC3)C(=O)C43CCNC3=O)cc2F)CC1` (stereo not drawn) [Compound C103, 7′-cyclopentyl-2′-((3-fluoro-4-(4-methylpiperazin-1-yl)phenyl)amino)spiro[pyrrolidine-3,5′-pyrrolo[2,3-d]pyrimidine]-2,6′(7′H)-dione], for which the figures for the IC50 in assay [1] (setting [3]) and in assay [2] (setting [4]) were 50700 nM and 20 µM, respectively.

As to `CN(C)[C@H]1CCN(c2ccc(Nc3ncc4c(n3)N(C3CCCC3)C(=O)C43CCNC3=O)cc2F)C1` (stereo partly drawn) [Compound C105, 7′-cyclopentyl-2′-((4-((S)-3-(dimethylamino)pyrrolidin-1-yl)-3-fluorophenyl)amino)spiro[pyrrolidine-3,5′-pyrrolo[2,3-d]pyrimidine]-2,6′(7′H)-dione], the IC50 in assay [1] (setting [3]) worked out at 29700 nM; in assay [2] (setting [4]), 11.8 µM.

Take `O=C1NCCC12C(=O)N(C1CCCC1)c1nc(Nc3ccc(N4CCC(N5CCOCC5)CC4)c(F)c3)ncc12` (stereo not drawn) [Compound C106, 7′-cyclopentyl-2′-((3-fluoro-4-(4-morpholinopiperidin-1-yl)phenyl)amino)spiro[pyrrolidine-3,5′-pyrrolo[2,3-d]pyrimidine]-2,6′(7′H)-dione]: the IC50 was 14700 nM in assay [1] (setting [3]) and 7.35 µM in assay [2] (setting [4]).

Take `O=C1NCCC12Cc1cnc(Nc3ccc(N4CC5(CNC5)C4)c(F)c3)nc1N2C1CCCC1` (stereo not drawn) [Compound C107, 7′-cyclopentyl-2′-((3-fluoro-4-(2,6-diazaspiro[3.3]heptan-2-yl)phenyl)amino)-5′,7′-dihydrospiro[pyrrolidine-3,6′-pyrrolo[2,3-d]pyrimidin]-2-one]: the figures for the IC50 in assay [1] (setting [3]) and in assay [2] (setting [4]) were 335 nM and 0.0866 µM, respectively.

Regarding `CN1CCN(c2ccc(Nc3ncc4c(n3)N(C3CCCCC3)C3(CCNC3=O)C4)cc2)CC1` (stereo not drawn) [Compound C199, 7′-cyclohexyl-2′-((4-(4-methylpiperazin-1-yl)phenyl)amino)-5′,7′-dihydrospiro[pyrrolidine-3,6′-pyrrolo[2,3-d]pyrimidin]-2-one], the half-inhibitory concentration (IC50) in assay [1] (setting [5]) stood at 103 nM; in assay [1] (setting [6]) it was 103 nM; in assay [2] (setting [7]), 0.0332 µM; in assay [2] (setting [8]) it was 0.0332 µM.

Regarding `CN1CCN(c2ccc(Nc3ncc4c(n3)N(C3CCCCC3)C3(CCNC3=O)C4)cc2F)CC1` (stereo not drawn) [Compound C200, 7′-cyclohexyl-2′-((3-fluoro-4-(4-methylpiperazin-1-yl)phenyl)amino)-5′,7′-dihydrospiro[pyrrolidine-3,6′-pyrrolo[2,3-d]pyrimidin]-2-one], the half-inhibitory concentration (IC50) was 69 nM in assay [1] (setting [5]); 69 nM in assay [1] (setting [6]); 0.0138 µM and 0.0102 µM in assay [2] (setting [7]); 0.0138 µM and 0.0102 µM in assay [2] (setting [8]).

For the compound `CN1CCN(c2ccc(Nc3ncc4c(n3)N(C3CCCCC3)C3(CCNC3=O)C4)cn2)CC1` (stereo not drawn) [Compound C201, 7′-cyclohexyl-2′-((6-(4-methylpiperazin-1-yl)pyridin-3-yl)amino)-5′,7′-dihydrospiro[pyrrolidine-3,6′-pyrrolo[2,3-d]pyrimidin]-2-one], the IC50 in assay [1] (setting [5]) was 115 nM; in assay [1] (setting [6]), 115 nM; in assay [2] (setting [7]), 0.0393 µM; in assay [2] (setting [8]) it was 0.0393 µM.

For the compound `CN1CCN(c2ccc(Nc3ncc4c(n3)N(C3CCCCC3)C3(CCNC3=O)C4)nc2)CC1` (stereo not drawn) [Compound C202, 7′-cyclohexyl-2′-((5-(4-methylpiperazin-1-yl)pyridin-2-yl)amino)-5′,7′-dihydrospiro[pyrrolidine-3,6′-pyrrolo[2,3-d]pyrimidin]-2-one], the IC50 in assay [1] (setting [5]) was found to be 704 nM; in assay [1] (setting [6]), 704 nM; in assay [2] (setting [7]) it was 0.368 µM; in assay [2] (setting [8]), 0.368 µM.
